Measurements: ChEMBL document CHEMBL3817847, “Design and synthesis of fused soluble epoxide hydrolase/peroxisome proliferator-activated receptor modulators” (Medchemcomm, 2016)
Calls of active or inactive are those of the source. No cut-off for these calls is given here.

Experiments:
[1] = target: T1, Peroxisome proliferator-activated receptor alpha (Homo sapiens) (UniProt Q07869); assay: Agonist activity at Gal4-tagged human PPARalpha ligand binding domain expressed in COS-7 cells at 30 uM measured after overnight incubation by dual-glo luciferase reporter gene assay; format: cell-based
T1 sequence (whole entry): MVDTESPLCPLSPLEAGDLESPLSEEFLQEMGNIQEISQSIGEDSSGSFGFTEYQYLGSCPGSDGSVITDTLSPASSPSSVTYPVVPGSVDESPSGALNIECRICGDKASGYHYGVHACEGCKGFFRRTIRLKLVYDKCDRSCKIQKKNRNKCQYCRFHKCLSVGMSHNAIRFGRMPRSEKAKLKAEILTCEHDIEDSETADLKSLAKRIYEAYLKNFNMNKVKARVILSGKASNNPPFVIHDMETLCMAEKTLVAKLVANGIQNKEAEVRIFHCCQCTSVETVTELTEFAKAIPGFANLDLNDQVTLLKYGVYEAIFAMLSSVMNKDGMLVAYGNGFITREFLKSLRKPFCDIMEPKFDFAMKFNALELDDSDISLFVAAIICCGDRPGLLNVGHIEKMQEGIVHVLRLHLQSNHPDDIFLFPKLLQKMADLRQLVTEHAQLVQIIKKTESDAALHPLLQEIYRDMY

[2] = target: T2, Peroxisome proliferator-activated receptor gamma (Homo sapiens) (UniProt P37231); assay: Agonist activity at Gal4-tagged human PPARgamma ligand binding domain expressed in COS-7 cells at 30 uM measured after overnight incubation by dual-glo luciferase reporter gene assay; format: cell-based
T2 sequence (whole entry): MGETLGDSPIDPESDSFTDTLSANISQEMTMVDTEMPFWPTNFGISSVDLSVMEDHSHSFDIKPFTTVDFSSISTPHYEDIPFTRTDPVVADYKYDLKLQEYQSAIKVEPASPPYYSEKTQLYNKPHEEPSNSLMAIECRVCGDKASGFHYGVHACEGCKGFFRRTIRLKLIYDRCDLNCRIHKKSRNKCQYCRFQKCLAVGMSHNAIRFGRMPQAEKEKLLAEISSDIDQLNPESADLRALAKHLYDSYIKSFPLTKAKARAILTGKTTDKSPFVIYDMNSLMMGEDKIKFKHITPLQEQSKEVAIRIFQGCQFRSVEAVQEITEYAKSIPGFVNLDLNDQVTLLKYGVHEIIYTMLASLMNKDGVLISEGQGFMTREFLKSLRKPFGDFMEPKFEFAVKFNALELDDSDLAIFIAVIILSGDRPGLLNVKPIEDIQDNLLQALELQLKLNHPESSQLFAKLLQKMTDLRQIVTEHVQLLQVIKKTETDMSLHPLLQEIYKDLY

[3] = target: T3, Peroxisome proliferator-activated receptor delta (Homo sapiens) (UniProt Q03181); assay: Agonist activity at Gal4-tagged human PPARdelta ligand binding domain expressed in COS-7 cells at 30 uM measured after overnight incubation by dual-glo luciferase reporter gene assay; format: cell-based
T3 sequence (whole entry): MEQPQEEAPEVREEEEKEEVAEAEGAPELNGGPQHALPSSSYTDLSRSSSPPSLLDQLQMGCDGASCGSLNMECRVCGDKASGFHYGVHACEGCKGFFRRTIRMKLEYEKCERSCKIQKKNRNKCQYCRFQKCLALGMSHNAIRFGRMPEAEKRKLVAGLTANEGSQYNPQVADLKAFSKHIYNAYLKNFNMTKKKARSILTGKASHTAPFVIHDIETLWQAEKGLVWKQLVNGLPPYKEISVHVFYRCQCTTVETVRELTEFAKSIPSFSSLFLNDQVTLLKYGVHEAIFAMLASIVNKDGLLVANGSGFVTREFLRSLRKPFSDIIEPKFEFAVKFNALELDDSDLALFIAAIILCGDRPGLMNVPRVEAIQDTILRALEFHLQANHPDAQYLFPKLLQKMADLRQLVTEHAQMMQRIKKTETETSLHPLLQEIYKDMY

[4] = target: T4, Bifunctional epoxide hydrolase 2 (Homo sapiens, UniProt P34913); assay: Inhibition of recombinant human […] assessed as product formation preincubated for 30 mins followed by addition of (3-phenyl-cyano-(6-methoxy-2-naphthalenyl)methyl ester-2-oxirane-acetic acid as substrate measured after 30 mins by fluorescence analysis
T4 sequence (P34913 whole entry): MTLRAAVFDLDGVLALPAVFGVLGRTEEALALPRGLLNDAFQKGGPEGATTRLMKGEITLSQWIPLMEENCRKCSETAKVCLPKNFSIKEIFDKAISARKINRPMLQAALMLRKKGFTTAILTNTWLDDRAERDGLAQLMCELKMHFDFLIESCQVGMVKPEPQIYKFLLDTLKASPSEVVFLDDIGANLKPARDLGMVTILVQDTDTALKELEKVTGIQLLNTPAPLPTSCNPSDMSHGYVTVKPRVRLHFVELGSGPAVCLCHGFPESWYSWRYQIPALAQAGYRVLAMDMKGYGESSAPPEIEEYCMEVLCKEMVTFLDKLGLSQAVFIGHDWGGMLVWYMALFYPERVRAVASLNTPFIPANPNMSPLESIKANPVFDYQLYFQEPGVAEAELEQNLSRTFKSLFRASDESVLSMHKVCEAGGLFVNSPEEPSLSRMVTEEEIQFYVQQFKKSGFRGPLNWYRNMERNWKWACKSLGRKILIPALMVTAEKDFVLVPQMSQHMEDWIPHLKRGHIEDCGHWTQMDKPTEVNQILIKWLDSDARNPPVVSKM

[5] = target: T5, Peroxisome proliferator-activated receptor delta (Homo sapiens, UniProt Q03181); assay: Agonist activity at Gal4-tagged human PPARdelta ligand binding domain expressed in COS-7 cells measured after overnight incubation by dual-glo luciferase reporter gene assay; format: cell-based
T5 sequence (Q03181 whole entry): T3 sequence (whole entry)

[6] = target: T6, Peroxisome proliferator-activated receptor alpha (Homo sapiens, UniProt Q07869); assay: Agonist activity at Gal4-tagged human PPARalpha ligand binding domain expressed in COS-7 cells measured after overnight incubation by dual-glo luciferase reporter gene assay; format: cell-based
T6 sequence (Q07869 whole entry): T1 sequence (whole entry)

[7] = target: T7, Peroxisome proliferator-activated receptor gamma (Homo sapiens, UniProt P37231); assay: Agonist activity at Gal4-tagged human PPARgamma ligand binding domain expressed in COS-7 cells measured after overnight incubation by dual-glo luciferase reporter gene assay; format: cell-based
T7 sequence (P37231 whole entry): T2 sequence (whole entry)

[8] = target: T2, Peroxisome proliferator-activated receptor gamma (Homo sapiens); assay: Agonist activity at Gal4-tagged human PPARgamma ligand binding domain expressed in COS-7 cells at 10 uM measured after overnight incubation by dual-glo luciferase reporter gene assay; format: cell-based
[9] = test system: 3T3-L1; assay: Partial agonist activity at PPAR in mouse 3T3L1 cells assessed as increase in adipocyte differentiation after 14 days by Oil Red O staining method; format: cell-based
[10] = test system: 3T3-L1; assay: Agonist activity at PPAR in mouse 3T3L1 cells assessed as increase in adipocyte differentiation at 2 uM after 14 days by Oil Red O staining method; format: cell-based
[11] = target: T1, Peroxisome proliferator-activated receptor alpha (Homo sapiens); assay: Agonist activity at Gal4-tagged human PPARalpha ligand binding domain expressed in COS-7 cells at 10 um measured after overnight incubation by dual-glo luciferase reporter gene assay; format: cell-based

Compound | IC50 ([4]; read-out: IC50) | EC50 ([5]; cos-7) | EC50 ([6]; cos-7) | EC50 ([7]; cos-7) | also measured
CC(Oc1ccc(CCNC(=O)Nc2ccc(Cl)cc2)cc1)C(=O)O (configuration not stated) | 570 nM | – | – | – | Activity [1]: inactive; Activity [2]: inactive; Activity [3]: inactive
CCC(Cc1ccc(N2CCC(C(=O)NCc3ccccc3C(F)(F)F)CC2)cc1)C(=O)O (configuration not stated) | 75 nM | Not Active | Not Active | Not Active | –
CCCCCCC(Sc1nc(Cl)cc(Nc2ccc(Nc3ccccc3)cc2)n1)C(=O)O (configuration not stated) | – | Not Active | – | – | EC50 ([6]; read-out: EC50): 67 nM; IC50 [4]: Not Active
CCOC(=O)/C(=C/c1ccc(N2CCC(C(=O)NCc3ccccc3C(F)(F)F)CC2)cc1)CC | 40 nM | Not Active | Not Active | Not Active | –
O=C(Nc1ccc(I)cc1)NC1CCCCC1 | – | Not Active | Not Active | – | Emax [8]: 22%
CCOC(=O)C(C)Oc1ccc(CCNC(=O)Nc2ccc(Cl)cc2)cc1 (configuration not stated) | 27 nM | – | – | – | Activity [1]: inactive; Activity [2]: inactive; Activity [3]: inactive
CCCCCCC(Sc1nc(Cl)cc(N2CCC(C(=O)NCc3ccccc3C(F)(F)F)CC2)n1)C(=O)OCC (configuration not stated) | 2500 nM | Not Active | Not Active | Not Active | –
CC(Oc1ccc(CNC(=O)Nc2ccc(Cl)cc2)cc1)C(=O)O (configuration not stated) | 850 nM | – | – | – | Activity [1]: inactive; Activity [2]: inactive; Activity [3]: inactive
CCOC(=O)C(C)Oc1ccc(CNC(=O)Nc2ccc(Cl)cc2)cc1 (configuration not stated) | 64 nM | – | – | – | Activity [1]: inactive; Activity [2]: inactive; Activity [3]: inactive
CC(C)(Oc1ccc(CCNC(=O)c2ccc(Cl)cc2)cc1)C(=O)O [BEZAFIBRATE] | – | – | – | – | EC50 ([5]; read-out: EC50): 22600 nM; IC50 [4]: Not Active; EC50 ([7]; read-out: EC50): 15400 nM
CCOC(=O)C(CC)Cc1ccc(N2CCC(C(=O)NCc3ccccc3C(F)(F)F)CC2)cc1 (configuration not stated) | 23 nM | Not Active | Not Active | Not Active | –
CCCCCCC(Sc1nc(Cl)cc(NCCCC(=O)NCc2ccccc2C(F)(F)F)n1)C(=O)O (configuration not stated) | 1200 nM | Not Active | – | – | Activity [9]: Dose-dependent effect; EC50 ([6]; read-out: EC50): 2500 nM; EC50 ([7]; read-out: EC50): 6000 nM
CC/C(=C\c1ccc(N2CCC(C(=O)NCc3ccccc3C(F)(F)F)CC2)cc1)C(=O)O | 27 nM | Not Active | Not Active | Not Active | –
CN(CCOc1ccc(CC2SC(=O)NC2=O)cc1)c1ccccn1 (configuration not stated) | – | – | – | – | Activity [10]: Active
CCCCCCC(Sc1nc(Cl)cc(NCCCC(=O)NCc2ccccc2C(F)(F)F)n1)C(=O)OCC (configuration not stated) | 1300 nM | Not Active | Not Active | Not Active | –
CNc1nc(C)nc(N[C@H]2CCC[C@@H](C(=O)NCc3ccc(C#N)cc3C(F)(F)F)C2)n1 [GSK2256294] | – | Not Active | Not Active | Not Active | –
CCCCCCC(Sc1nc(Cl)cc(N2CCC(C(=O)NCc3ccccc3C(F)(F)F)CC2)n1)C(=O)O (configuration not stated) | 300 nM | Not Active | – | Not Active | Emax [11]: 65%
